Source: patent US10626144B2, “Peptide derivatives and uses thereof” (Nosopharm, priority 2014, dated 2020)
Numbered stars: 1 amine (or outer) side, 2 acyl side, 3 side chain; on linkers, the order of the positions; unused ones are H or OH. Square brackets hold non-standard residues; d marks the D form. Peptide text beside a SMILES is read from it. * marks the point of attachment. Phe(3-CONH2) = NC(=O)c1cccc(C[C@H](N)C(=O)O)c1; Phe(4-Cl) = N[C@@H](Cc1ccc(Cl)cc1)C(=O)O; Phe(3-F) = N[C@@H](Cc1cccc(F)c1)C(=O)O; Dab(3S-OH) = NC[C@H](O)[C@H](N)C(=O)O; X5 = O=C(C(N[*:1])c1cccs1)[*:2]; ΔZArg = N=C(N)NCC/C=C(\N)C(=O)O; Gly(cPr) = N[C@H](C(=O)O)C1CC1; aThr = C[C@H](O)[C@H](N)C(=O)O; NMeK = CN[C@@H](CCCCN)C(=O)O; dOrn = NCCC[C@@H](N)C(=O)O; Pip = O=C(O)[C@@H]1CCCCN1; Dab = NCC[C@H](N)C(=O)O; NH(CH2)4NH2 = NCCCCN*

How the values were obtained:
Assay in all cases: MIC, broth microdilution (CLSI), reference strain
Conditions in all cases: CAMHB
[1] = test system: Escherichia coli ATCC 25922
[2] = test system: Staphylococcus aureus ATCC 13709
[3] = test system: Pseudomonas aeruginosa ATCC 27853
[4] = test system: Acinetobacter baumannii ATCC 19606

N=C(N)NCC/C=C(\NC(=O)[C@H](CCCCN)NC(=O)[C@H](Cc1cnc[nH]1)NC(=O)[C@@H]1CCCN1C(=O)[C@@H](CCCN)NC(=O)CNC(=O)[C@@H](NC(=O)[C@@H](NC(=O)[C@@H](N)CCCCN)[C@@H](O)CN)C1CC1)C(N)=O [213.1] (H-K[Dab(3S-OH)][Gly(cPr)]G[dOrn]PHK[ΔZArg]-NH2)
Ec: MIC Escherichia coli ATCC 25922 [1]: + (≤32 μg/mL) | Sa: MIC Staphylococcus aureus ATCC 13709 [2]: ++ (≤8 μg/mL) | Pa: MIC Pseudomonas aeruginosa ATCC 27853 [3]: − (>32 μg/mL) | Ab: MIC Acinetobacter baumannii ATCC 19606 [4]: − (>32 μg/mL)

N=C(N)NCC/C=C(\NC(=O)[C@H](CCCCN)NC(=O)[C@H](Cc1cccc(F)c1)NC(=O)[C@@H]1CCCN1C(=O)[C@@H](CCCN)NC(=O)CNC(=O)[C@@H](NC(=O)[C@@H](NC(=O)[C@@H](N)CCCCN)[C@@H](O)CN)[C@@H](O)CN)C(=O)O [22.36] (H-K[Dab(3S-OH)][Dab(3S-OH)]G[dOrn]P[Phe(3-F)]K[ΔZArg]-OH)
Ec: MIC Escherichia coli ATCC 25922 [1]: ++ (≤8 μg/mL) | Sa: MIC Staphylococcus aureus ATCC 13709 [2]: ++ (≤8 μg/mL) | Pa: MIC Pseudomonas aeruginosa ATCC 27853 [3]: − (>32 μg/mL) | Ab: MIC Acinetobacter baumannii ATCC 19606 [4]: − (>32 μg/mL)

C[C@H](NC(=O)[C@@H](NC(=O)[C@@H](N)CCCCN)[C@@H](O)CN)C(=O)NCC(=O)N[C@H](CCCN)C(=O)N1CCC[C@H]1C(=O)NC(C(=O)N[C@@H](CCCCN)C(=O)N/C(=C\CCNC(=N)N)C(=O)O)c1cccs1 (stereo partly drawn) [24.157] (H-K[Dab(3S-OH)]AG[dOrn]P[X5]K[ΔZArg]-OH)
Ec: MIC Escherichia coli ATCC 25922 [1]: − (>32 μg/mL) | Sa: MIC Staphylococcus aureus ATCC 13709 [2]: + (≤32 μg/mL) | Pa: MIC Pseudomonas aeruginosa ATCC 27853 [3]: − (>32 μg/mL) | Ab: MIC Acinetobacter baumannii ATCC 19606 [4]: − (>32 μg/mL)

C[C@H](NC(=O)[C@H](CCN)NC(=O)[C@@H](N)CCCCN)C(=O)NCC(=O)N[C@H](CCCN)C(=O)N1CCC[C@H]1C(=O)N[C@@H](Cc1cnc[nH]1)C(=O)N[C@@H](CCCCN)C(=O)N/C(=C\CCNC(=N)N)C(=O)N[C@H](CCCCN)C(=O)NCCCCN [14.11] (H-K[Dab]AG[dOrn]PHK[ΔZArg][dK]-{NH(CH2)4NH2})
Ec: MIC Escherichia coli ATCC 25922 [1]: − (>32 μg/mL) | Sa: MIC Staphylococcus aureus ATCC 13709 [2]: ++ (≤8 μg/mL) | Pa: MIC Pseudomonas aeruginosa ATCC 27853 [3]: − (>32 μg/mL) | Ab: MIC Acinetobacter baumannii ATCC 19606 [4]: − (>32 μg/mL)

C[C@H](O)[C@H](NC(=O)[C@H](CCN)NC(=O)[C@@H](N)CCCCN)C(=O)NCC(=O)N[C@H](CCCN)C(=O)N1CCC[C@H]1C(=O)N[C@@H](Cc1cnc[nH]1)C(=O)N[C@@H](CCCCN)C(=O)N/C(=C\CCNC(=N)N)C(=O)N[C@@H](CCCCN)C(=O)NCCCCN [15.1] (H-K[Dab][aThr]G[dOrn]PHK[ΔZArg]K-{NH(CH2)4NH2})
Ec: MIC Escherichia coli ATCC 25922 [1]: − (>32 μg/mL) | Sa: MIC Staphylococcus aureus ATCC 13709 [2]: + (≤32 μg/mL) | Pa: MIC Pseudomonas aeruginosa ATCC 27853 [3]: − (>32 μg/mL) | Ab: MIC Acinetobacter baumannii ATCC 19606 [4]: − (>32 μg/mL)

C[C@H](NC(=O)[C@@H](NC(=O)[C@@H](N)CCCCN)[C@@H](O)CN)C(=O)NCC(=O)N[C@H](CCCN)C(=O)N1CCCC[C@H]1C(=O)N[C@@H](Cc1cnc[nH]1)C(=O)N[C@@H](CCCCN)C(=O)N/C(=C\CCNC(=N)N)C(=O)N[C@@H](CCCCN)C(=O)NCCCCN [24.3] (H-K[Dab(3S-OH)]AG[dOrn][Pip]HK[ΔZArg]K-{NH(CH2)4NH2})
Ec: MIC Escherichia coli ATCC 25922 [1]: ++ (≤8 μg/mL) | Sa: MIC Staphylococcus aureus ATCC 13709 [2]: ++ (≤8 μg/mL) | Pa: MIC Pseudomonas aeruginosa ATCC 27853 [3]: + (≤32 μg/mL) | Ab: MIC Acinetobacter baumannii ATCC 19606 [4]: − (>32 μg/mL)

N=C(N)NCC/C=C(\NC(=O)[C@H](CCCCN)NC(=O)[C@H](Cc1cccc(C(N)=O)c1)NC(=O)[C@@H]1CCCN1C(=O)[C@@H](CCCN)NC(=O)CNC(=O)[C@@H](NC(=O)[C@@H](NC(=O)[C@@H](N)CCCCN)[C@@H](O)CN)[C@@H](O)CN)C(=O)O [22.35] (H-K[Dab(3S-OH)][Dab(3S-OH)]G[dOrn]P[Phe(3-CONH2)]K[ΔZArg]-OH)
Ec: MIC Escherichia coli ATCC 25922 [1]: − (>32 μg/mL) | Sa: MIC Staphylococcus aureus ATCC 13709 [2]: − (>32 μg/mL) | Pa: MIC Pseudomonas aeruginosa ATCC 27853 [3]: − (>32 μg/mL) | Ab: MIC Acinetobacter baumannii ATCC 19606 [4]: − (>32 μg/mL)

CN[C@@H](CCCCN)C(=O)N[C@H](C(=O)N[C@@H](C)C(=O)NCC(=O)N[C@H](CCCN)C(=O)N1CCC[C@H]1C(=O)N[C@@H](Cc1ccc(Cl)cc1)C(=O)N[C@@H](CCCCN)C(=O)N/C(=C\CCNC(=N)N)C(=O)O)[C@@H](O)CN [24.98] (H-[NMeK][Dab(3S-OH)]AG[dOrn]P[Phe(4-Cl)]K[ΔZArg]-OH)
Ec: MIC Escherichia coli ATCC 25922 [1]: + (≤32 μg/mL) | Sa: MIC Staphylococcus aureus ATCC 13709 [2]: ++ (≤8 μg/mL) | Pa: MIC Pseudomonas aeruginosa ATCC 27853 [3]: − (>32 μg/mL) | Ab: MIC Acinetobacter baumannii ATCC 19606 [4]: − (>32 μg/mL)
